Patent US11878965B2, “Inhibitors of peptidylarginine deiminases” (Gilead Sciences, Inc., priority 2020, dated 2024)

target: human PAD4 (Homo sapiens (Human), UniProt Q9UM07); assay: In Vitro PAD4 BAEE Biochemical Assay; details: human PAD4, BAEE substrate; 5 nM PAD4, 2 mM calcium chloride, 3 mM BAEE; geometric mean of multiple experiments
Method in brief: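 Deimination of BAEE substrate (3 mM) measured as ammonia via o-phthalaldehyde–DTT isoindole fluorescence, 405/535 nm. Tag-free bacterially expressed human PAD4 at 5 nM with 2 mM calcium chloride, pH 7.6 MOPS buffer, 30 min compound preincubation then 2 h reaction, both at 25 °C.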

Sequence of human PAD4 (Q9UM07 2-663): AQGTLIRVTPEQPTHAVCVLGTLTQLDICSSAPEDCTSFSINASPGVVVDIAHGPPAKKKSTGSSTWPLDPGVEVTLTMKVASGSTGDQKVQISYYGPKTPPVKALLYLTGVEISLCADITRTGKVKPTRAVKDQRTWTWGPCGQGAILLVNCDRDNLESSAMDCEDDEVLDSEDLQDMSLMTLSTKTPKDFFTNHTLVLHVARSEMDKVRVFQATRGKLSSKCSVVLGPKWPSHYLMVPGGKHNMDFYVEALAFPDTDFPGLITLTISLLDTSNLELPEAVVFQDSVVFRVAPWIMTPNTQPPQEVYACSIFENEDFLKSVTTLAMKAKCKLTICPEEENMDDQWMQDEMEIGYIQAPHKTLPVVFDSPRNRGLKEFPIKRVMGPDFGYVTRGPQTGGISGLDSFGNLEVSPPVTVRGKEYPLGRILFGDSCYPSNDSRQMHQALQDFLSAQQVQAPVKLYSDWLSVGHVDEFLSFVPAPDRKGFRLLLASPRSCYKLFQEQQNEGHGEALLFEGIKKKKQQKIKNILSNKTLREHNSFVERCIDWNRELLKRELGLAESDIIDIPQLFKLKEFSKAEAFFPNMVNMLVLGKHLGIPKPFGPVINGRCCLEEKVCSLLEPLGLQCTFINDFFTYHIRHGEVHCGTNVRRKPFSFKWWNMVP

IC50 [nM]	SMILES
401	COC(=O)N(C)c1ccc2cc(-c3nc4cc(C(=O)N5CCC[C@@H](N)C5)cc(OC)c4n3C)n(CC3CC3)c2n1 [Example 109, (R)-methyl (2-(5-(3-aminopiperidine-1-carbonyl)-7-methoxy-1-methyl-1H-benzo[d]imidazol-2-yl)-1-(cyclopropylmethyl)-1H-pyrrolo[2,3-b]pyridin-6-yl) (methyl)carbamate]
149	COc1cc(C(=O)N2CCC[C@@H](N)[C@H]2C)cc2nc(-c3cc4ccc(N(C)S(C)(=O)=O)nc4n3CC3CC3)n(C)c12 [Example 4, N-(2-(5-((2R,3R)-3-amino-2-methylpiperidine-1-carbonyl)-7-methoxy-1-methyl-1H-benzo[d]imimidazol-2-yl)-1-(cyclopropylmethyl)-1H-pyrrolo [2,3-b]pyridin-6-yl)-N-methylmethanesulfonamide]
102	COc1cc(C(=O)N2C[C@H](N)CCN2C)cc2nc(-c3cc4ccc([C@@H](C)NC(=O)[C@@H]5CC5(F)F)nc4n3CC3CC3)n(C)c12 [Example 168, (S)-N-((R)-1-(2-(5-((R)-5-amino-2-methylhexahydropyridazine-1-carbonyl)-7-methoxy-1-methyl-1H-benzo[d]imidazol-2-yl)-1-(cyclopropylmethyl)-1H-pyrrolo[2,3-b]pyridin-6-yl)ethyl)-2,2-difluorocyclopropane-1-carboxamide]
82.1	COc1cc(C(=O)N2C[C@H](N)CCN2C)cc2nc(-c3cc4ccc([C@@H](C)NC(=O)C56CC(C5)C6)nc4n3CC3CC3)n(C)c12 [Example 185, N-((R)-1-(2-(5-((R)-5-amino-2-methylhexahydropyridazine-1-carbonyl)-7-methoxy-1-methyl-1H-benzo[d]imidazol-2-yl)-1-(cyclopropylmethyl)-1H-pyrrolo[2,3-b]pyridin-6-yl)ethyl)bicyclo[1.1.1]pentane-1-carboxamide]
102	COc1cc(C(=O)N2C[C@H](N)CCN2C)cc2nc(-c3cc4ccc([C@@H](C)NC(=O)c5ccc(F)cc5C)nc4n3CC3CC3)n(C)c12 [Example 195, N-((R)-1-(2-(5-((R)-5-amino-2-methylhexahydropyridazine-1-carbonyl)-7-methoxy-1-methyl-1H-benzo[d]imidazol-2-yl)-1-(cyclopropylmethyl)-1H-pyrrolo[2,3-b]pyridin-6-yl)ethyl)-4-fluoro-2-methylbenzamide]
1820	COc1cc(C(=O)N2C[C@H](N)CC[C@@H]2C)cc2nc(-c3cc4ccc(C(=O)N(C)c5ccccc5)nc4n3CC3CC3)n(C)c12 [Example 252, 2-(5-((2S,5R)-5-amino-2-methylpiperidine-1-carbonyl)-7-methoxy-1-methyl-1H-benzo[d]imidazol-2-yl)-1-(cyclopropylmethyl)-N-methyl-N-phenyl-1H-pyrrolo[2,3-b]pyridine-6-carboxamide]
47.8	COc1cc(C(=O)N2C[C@H](N)CCN2C)cc2nc(-c3cc4ccc([C@@H](C)NC(=O)c5cnn(C)c5)nc4n3CC3CC3)n(C)c12 [Example 169, N-((R)-1-(2-(5-((R)-5-amino-2-methylhexahydropyridazine-1-carbonyl)-7-methoxy-1-methyl-1H-benzo[d]imidazol-2-yl)-1-(cyclopropylmethyl)-1H-pyrrolo[2,3-b]pyridin-6-yl)ethyl)-1-methyl-1H-pyrazole-4-carboxamide]

The next lines start with the compound.

SMILES	IC50 [nM]
CCCS(=O)(=O)N[C@H](C)c1ccc2cc(-c3nc4cc(C(=O)N5[C@H]6CC[C@@H]5[C@H](N)C6)cc(OC)c4n3C)n(CC3CC3)c2n1 [Example 240, N—((R)-1-(2-(5-((1R,2R,4S)-2-amino-7-azabicyclo[2.2.1]heptane-7-carbonyl)-7-methoxy-1-methyl-1H-benzo[d]imidazol-2-yl)-1-(cyclopropylmethyl)-1H-pyrrolo[2,3-b]pyridin-6-yl)ethyl)propane-1-sulfonamide]	65.6
CS(=O)(=O)N(c1ccc2cc(-c3nc4cc(C(=O)N5[C@H]6CC[C@@H]5[C@H](N)C6)ccc4n3C3CC3)n(CC3CC3)c2n1)C(F)F [Example 65, N-(2-(5-((1R,2R,4S)-2-amino-7-azabicyclo[2.2.1]heptane-7-carbonyl)-1-cyclopropyl-1H-benzo[d]imidazol-2-yl)-1-(cyclopropylmethyl)-1H-pyrrolo[2,3-b]pyridin-6-yl)-N-(difluoromethyl) methanesulfonamide]	47
COc1cc(C(=O)N2[C@H]3CC[C@@H]2[C@H](N)C3)cc2nc(-c3cc4ccc(-n5c(C)cccc5=O)nc4n3CC3CC3)n(C)c12 [Example 255, 1-(2-(5-((1R,2R,4S)-2-amino-7-azabicyclo[2.2.1]heptane-7-carbonyl)-7-methoxy-1-methyl-1H-benzo[d]imidazol-2-yl)-1-(cyclopropylmethyl)-1H-pyrrolo[2,3-b]pyridin-6-yl)-6-methylpyridin-2(1H)-one]	40.2
COc1cc(C(=O)N2[C@H]3CC[C@@H]2[C@H](N)C3)cc2nc(-c3cc4ccc([C@@H](C)NC(=O)C(C)(C)C)nc4n3CC3CC3)n(C)c12 [Example 120, N—((R)-1-(2-(5-((1R,2R,4S)-2-amino-7-azabicyclo[2.2.1]heptane-7-carbonyl)-7-methoxy-1-methyl-1H-benzo[d]imidazol-2-yl)-1-(cyclopropylmethyl)-1H-pyrrolo[2,3-b]pyridin-6-yl)ethyl)pivalamide]	60.6
COc1cc(C(=O)N2C[C@H](N)[C@@H]3CC[C@H]2C3)cc2nc(-c3cc4ccc([C@@H](C)NC(=O)c5cnn(C(F)F)c5)nc4n3CC3CC3)n(C)c12 [Example 224, N-((R)-1-(2-(5-((1S,4R,5R)-4-amino-2-azabicycIo[3.2.1]octane-2-carbonyl)-7-methoxy-1-methyl-1H-benzo[d]imidazol-2-yl)-1-(cyclopropylmethyl)-1H-pyrrolo[2,3-b]pyridin-6-yl)ethyl)-1-(difluoromethyl)-1H-pyrazole-4-carboxamide]	48.1
COc1cc(C(=O)N2[C@@H]3CC[C@@H](N)[C@H]2CC3)cc2nc(-c3cc4ccc(N(C(C)C)S(C)(=O)=O)nc4n3CC3CC3)n(C)c12 [Example 85, N-(2-(5-((1R,2R,5R)-2-amino-8-azabicyclo[3.2.1]octane-8-carbonyl)-7-methoxy-1-methyl-1H-benzo[d]imidazol-2-yl)-1-(cyclopropylmethyl)-1H-pyrrolo [2,3-b]pyridin-6-yl)-N-isopropyl-methanesulfonamide]	69.8
COc1cc(C(=O)N2[C@H]3CC[C@@H]2[C@H](N)C3)cc2nc(-c3cc4ccc([C@@H](C)NC(=O)c5ccccc5)nc4n3CC3CC3)n(C)c12 [Example 123, N-((R)-1-(2-(5-((1R,2R,4S)-2-amino-7-azabicyclo[2.2.1]heptane-7-carbonyl)-7-methoxy-1-methyl-1H-benzo[d]imidazol-2-yl)-1-(cyclopropylmethyl)-1H-pyrrolo[2,3-b]pyridin-6-yl)ethyl)benzamide]	29.2
COc1cc(C(=O)N2C[C@H](N)CCN2C)cc2nc(-c3cc4ccc([C@@H](C)NC(=O)C56CC(C)(C5)C6)nc4n3CC3CC3)n(C)c12 [Example 187, N-((R)-1-(2-(5-((R)-5-amino-2-methylhexahydropyridazine-1-carbonyl)-7-methoxy-1-methyl-1H-benzo[d]imidazol-2-yl)-1-(cyclopropylmethyl)-1H-pyrrolo[2,3-b]pyridin-6-yl)ethyl)-3-methylbicyclo[1.1.1]pentane-1-carboxamide]	96.9
COc1cc(C(=O)N2[C@H]3CC[C@@H]2[C@H](N)C3)cc2nc(-c3cc4ccc([C@@H](C)NC(=O)N(C)C)nc4n3CC3CC3)n(C)c12 [Example 235, 3-((R)-1-(2-(5-((1R,2R,4S)-2-amino-7-azabicyclo[2.2.1]heptane-7-carbonyl)-7-methoxy-1-methyl-1H-benzo[d]imidazol-2-yl)-1-(cyclopropylmethyl)-1H-pyrrolo[2,3-b]pyridin-6-yl)ethyl)-1,1-dimethylurea]	40.2

same assay, conditions: recombinant PAD4 5 nM, 2 mM calcium chloride, 3 mM BAEE substrate; geometric mean of multiple experiments

IC50 [nM]	SMILES
74.1	COc1cc(C(=O)N2C[C@H](N)[C@@H]3CC[C@H]2C3)cc2nc(-c3cc4ccc([C@@H](C)NC(=O)c5ccnc(C(F)F)c5)nc4n3CC3CC3)n(C)c12 [Example 296, N-((R)-1-(2-(5-((1S,4R,5R)-4-amino-2-azabicyclo[3.2.1]octane-2-carbonyl)-7-methoxy-1-methyl-1H-benzo[d]imidazol-2-yl)-1-(cyclopropylmethyl)-1H-pyrrolo[2,3-b]pyridin-6-yl)ethyl)-2-(difluoromethyl)isonicotinamide]
88.4	COc1cc(C(=O)N2C[C@H](N)[C@@H]3CC[C@H]2C3)cc2nc(-c3cc4ccc([C@@H](C)NC(=O)C5(F)CCC5)nc4n3CC3CC3)n(C)c12 [Example 327, N-((R)-1-(2-(5-((1S,4R,5R)-4-amino-2-azabicyclo[3.2.1]octane-2-carbonyl)-7-methoxy-1-methyl-1H-benzo[d]imidazol-2-yl)-1-(cyclopropylmethyl)-1H-pyrrolo[2,3-b]pyridin-6-yl)ethyl)-1-fluorocyclobutane-1-carboxamide]
72	COc1cc(C(=O)N2C[C@H](N)[C@@H]3CC[C@H]2C3)cc2nc(-c3cc4ccc([C@@H](C)NC(=O)c5ccc(C(C)(C)O)nc5)nc4n3CC3CC3)n(C)c12 [Example 300, N-((R)-1-(2-(5-((1S,4R,5R)-4-amino-2-azabicyclo[3.2.1]octane-2-carbonyl)-7-methoxy-1-methyl-1H-benzo[d]imidazol-2-yl)-1-(cyclopropylmethyl)-1H-pyrrolo[2,3-b]pyridin-6-yl)ethyl)-6-(2-hydroxypropan-2-yl)nicotinamide]
86.4	COc1cc(C(=O)N2C[C@H](N)[C@@H]3CC[C@H]2C3)cc2nc(-c3cc4ccc([C@@H](C)NC(=O)c5ccnc(Cl)c5)nc4n3CC3CC3)n(C)c12 [Example 298, N-((R)-1-(2-(5-((1S,4R,5R)-4-amino-2-azabicyclo[3.2.1]octane-2-carbonyl)-7-methoxy-1-methyl-1H-benzo[d]imidazol-2-yl)-1-(cyclopropylmethyl)-1H-pyrrolo[2,3-b]pyridin-6-yl)ethyl)-2-chloroisonicotinamide]
